Columns and labels:
MT4 cells = assay: Cytotoxicity; assay type: cell-based, human; conditions: ratio of CC50 to IC50
HIV-1NL4-3 (subtype B) = assay: Antiviral activity in MT-4 human T-lymphoid cells exposed to HIV-1NL4-3; assay type: cell-based; conditions: Human immunodeficiency virus 1, MT4, in Homo sapiens

SMILES | Selectivity Index (MT4 cells) | IC50 (HIV-1NL4-3 (subtype B)) [nM]
COc1ccc(S(=O)(=O)N(CC(C)C)C[C@@H](O)[C@H](Cc2ccccc2)NC(=O)c2ccc3c(c2)[C@@H](NC(=O)OC(C)(C)C)CCS3(=O)=O)cc1 [Inhibitor 4e, tert-Butyl ((S)-6-(((2S,3R)-3-hydroxy-4-((N-isobutyl-4-methoxyphenyl)sulfonamido)-1-phenylbutan-2-yl)carbamoyl)-1,1-dioxidothiochroman-4-yl)carbamate] | >2128 | 
CC(C)CN(C[C@@H](O)[C@H](Cc1ccccc1)NC(=O)O[C@H]1CCOC1)S(=O)(=O)c1ccc(N)cc1 [amprenavir] |  | 30

Reference: paper PMC6237192 (European journal of medicinal chemistry, 2018)
